ChEMBL document CHEMBL5465560, “Selectivity Literature for EUbOPEN Chemogenomic Library” (2024)
One block for each molecule: values may come before it.

How the values were obtained:
[1] = biological target: Tyrosine-protein kinase SYK (Homo sapiens, UniProt P43405); assay: Selectivity interaction (Kinase panel (Invitrogen)) EUB0000639a SYK; conditions: at 200 nM
[2] = biological target: T1, Serine/threonine-protein kinase STK11 (Homo sapiens) (UniProt Q15831); assay: Selectivity interaction (KinomeScan (DiscoverX)) EUB0000695a STK11; conditions: at 100 nM
T1 sequence (whole entry): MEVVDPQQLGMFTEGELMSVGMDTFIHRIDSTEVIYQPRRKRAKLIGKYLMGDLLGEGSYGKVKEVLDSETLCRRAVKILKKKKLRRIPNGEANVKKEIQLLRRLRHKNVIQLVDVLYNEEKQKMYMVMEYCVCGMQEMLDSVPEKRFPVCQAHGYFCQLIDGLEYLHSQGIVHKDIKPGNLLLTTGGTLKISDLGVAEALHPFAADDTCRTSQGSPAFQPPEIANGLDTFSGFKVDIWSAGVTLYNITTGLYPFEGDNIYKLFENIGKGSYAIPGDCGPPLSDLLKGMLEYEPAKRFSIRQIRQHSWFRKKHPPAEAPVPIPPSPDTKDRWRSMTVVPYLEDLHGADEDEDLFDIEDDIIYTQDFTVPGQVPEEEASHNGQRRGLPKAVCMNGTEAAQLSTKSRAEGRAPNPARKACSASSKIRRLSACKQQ

[3] = biological target: T2, MAP/microtubule affinity-regulating kinase 4 (Homo sapiens) (UniProt Q96L34); assay: Selectivity interaction (KinomeScan (DiscoverX)) EUB0000229b MARK4; conditions: at 10 µM
T2 sequence (whole entry): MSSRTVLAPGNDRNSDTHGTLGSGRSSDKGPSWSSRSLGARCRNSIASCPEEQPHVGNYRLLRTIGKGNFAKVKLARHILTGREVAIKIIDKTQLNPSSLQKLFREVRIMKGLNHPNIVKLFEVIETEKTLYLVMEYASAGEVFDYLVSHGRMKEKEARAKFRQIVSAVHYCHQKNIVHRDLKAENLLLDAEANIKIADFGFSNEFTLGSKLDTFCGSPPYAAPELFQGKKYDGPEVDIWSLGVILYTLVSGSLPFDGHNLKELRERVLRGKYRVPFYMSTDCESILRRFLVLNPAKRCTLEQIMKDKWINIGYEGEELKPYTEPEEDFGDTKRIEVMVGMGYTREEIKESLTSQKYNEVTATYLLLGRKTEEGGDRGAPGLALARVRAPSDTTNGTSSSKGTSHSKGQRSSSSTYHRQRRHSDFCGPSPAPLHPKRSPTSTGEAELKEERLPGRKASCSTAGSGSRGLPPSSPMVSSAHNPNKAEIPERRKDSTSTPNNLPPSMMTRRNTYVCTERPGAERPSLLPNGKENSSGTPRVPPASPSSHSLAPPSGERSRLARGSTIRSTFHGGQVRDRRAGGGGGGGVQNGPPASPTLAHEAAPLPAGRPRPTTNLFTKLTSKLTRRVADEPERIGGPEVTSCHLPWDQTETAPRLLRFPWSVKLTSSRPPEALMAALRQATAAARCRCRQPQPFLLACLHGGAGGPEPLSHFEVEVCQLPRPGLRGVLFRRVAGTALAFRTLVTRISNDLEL

[4] = biological target: T3, Protein kinase C zeta type (Homo sapiens) (UniProt Q05513); assay: Selectivity interaction (Upstate Kinase Profiler service (Millipore)) EUB0000056c PRKCZ; conditions: at 1 µM
T3 sequence (whole entry): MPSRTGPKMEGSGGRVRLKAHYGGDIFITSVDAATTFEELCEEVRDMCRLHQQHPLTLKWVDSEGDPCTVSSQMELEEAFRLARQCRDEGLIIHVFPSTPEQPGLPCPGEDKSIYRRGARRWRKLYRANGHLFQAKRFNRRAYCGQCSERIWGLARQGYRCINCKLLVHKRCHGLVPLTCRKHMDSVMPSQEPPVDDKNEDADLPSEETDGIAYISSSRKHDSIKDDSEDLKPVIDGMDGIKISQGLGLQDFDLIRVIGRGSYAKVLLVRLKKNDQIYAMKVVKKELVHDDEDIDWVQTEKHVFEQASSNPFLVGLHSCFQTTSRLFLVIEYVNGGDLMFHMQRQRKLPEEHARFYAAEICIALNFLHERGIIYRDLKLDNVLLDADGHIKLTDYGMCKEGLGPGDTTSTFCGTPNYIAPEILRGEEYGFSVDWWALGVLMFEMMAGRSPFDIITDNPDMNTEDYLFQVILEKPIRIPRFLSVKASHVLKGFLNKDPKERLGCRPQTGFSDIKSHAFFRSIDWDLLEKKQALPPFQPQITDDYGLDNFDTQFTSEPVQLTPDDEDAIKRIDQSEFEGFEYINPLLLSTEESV

[5] = biological target: Serine/threonine-protein kinase SIK2 (Homo sapiens) (UniProt Q9H0K1); assay: Selectivity interaction (KinomeScan (DiscoverX)) EUB0000045b SIK2
Chain of Serine/threonine-protein kinase SIK2 (Homo sapiens) (Q9H0K1 whole entry, looked up): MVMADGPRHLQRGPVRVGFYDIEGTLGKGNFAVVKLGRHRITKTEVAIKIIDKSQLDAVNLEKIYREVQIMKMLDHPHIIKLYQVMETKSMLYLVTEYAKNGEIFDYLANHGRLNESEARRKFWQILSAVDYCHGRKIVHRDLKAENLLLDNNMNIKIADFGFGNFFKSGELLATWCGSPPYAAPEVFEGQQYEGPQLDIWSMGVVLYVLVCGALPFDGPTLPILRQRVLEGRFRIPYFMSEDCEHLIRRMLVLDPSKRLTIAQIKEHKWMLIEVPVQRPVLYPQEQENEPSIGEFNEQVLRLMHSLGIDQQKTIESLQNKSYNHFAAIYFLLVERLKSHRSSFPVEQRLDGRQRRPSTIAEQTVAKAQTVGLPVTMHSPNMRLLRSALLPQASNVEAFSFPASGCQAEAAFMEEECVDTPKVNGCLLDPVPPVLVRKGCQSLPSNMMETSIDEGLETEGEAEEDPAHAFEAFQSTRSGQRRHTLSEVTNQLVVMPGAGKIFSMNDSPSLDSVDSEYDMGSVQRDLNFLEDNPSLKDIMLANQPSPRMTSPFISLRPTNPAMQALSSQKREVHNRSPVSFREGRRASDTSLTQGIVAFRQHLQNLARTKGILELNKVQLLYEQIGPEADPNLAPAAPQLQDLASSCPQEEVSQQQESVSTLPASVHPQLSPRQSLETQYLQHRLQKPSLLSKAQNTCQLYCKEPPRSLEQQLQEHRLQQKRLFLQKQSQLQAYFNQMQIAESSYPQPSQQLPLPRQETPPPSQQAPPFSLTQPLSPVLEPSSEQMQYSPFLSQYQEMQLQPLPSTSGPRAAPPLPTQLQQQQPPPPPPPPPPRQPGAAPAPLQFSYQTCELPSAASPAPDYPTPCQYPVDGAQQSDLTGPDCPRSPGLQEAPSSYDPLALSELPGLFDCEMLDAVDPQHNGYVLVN

% of inhibition [1]: 9.07%
SMILES: CC[C@@H]1[C@H](F)C(=O)N[C@@H]1COc1nccc2cc(C(N)=O)c(OC)cc12 [ZIMLOVISERTIB]

SMILES: Cc1cc(F)c(C(=O)Nc2cccc(-c3nncn3C(C)C)n2)cc1-n1cnc(C2CC2)c1
% of control [2]: 80%

SMILES: COc1cc(N(C)c2ccnc3ccc(C(F)(F)F)cc23)cc(OC)c1OC
% binding [3]: 87%

% of inhibition [4]: -8%
SMILES: Cc1ccc(-c2ccc3c(ccc4sc5c(c43)NC[C@@H](C)NC5=O)n2)cn1

SMILES: C=CC(=O)Nc1cc(-n2c(=O)ccc3cnc4ccc(-c5ccc(NS(C)(=O)=O)cc5)cc4c32)ccc1C
% of control ([5]; at 1 µM): 100%
% of control ([5]; at 10 µM): 100%
